# Test results reported in ChEMBL document CHEMBL1124522, “Synthesis and antitumor activity of 5-deaza-5,6,7,8-tetrahydrofolic acid and its N10-substituted analogues” (J Med Chem, 1989).
# T1: Folylpolyglutamate synthase, mitochondrial (Mus musculus) (UniProt P48760)
# T1 sequence (whole entry): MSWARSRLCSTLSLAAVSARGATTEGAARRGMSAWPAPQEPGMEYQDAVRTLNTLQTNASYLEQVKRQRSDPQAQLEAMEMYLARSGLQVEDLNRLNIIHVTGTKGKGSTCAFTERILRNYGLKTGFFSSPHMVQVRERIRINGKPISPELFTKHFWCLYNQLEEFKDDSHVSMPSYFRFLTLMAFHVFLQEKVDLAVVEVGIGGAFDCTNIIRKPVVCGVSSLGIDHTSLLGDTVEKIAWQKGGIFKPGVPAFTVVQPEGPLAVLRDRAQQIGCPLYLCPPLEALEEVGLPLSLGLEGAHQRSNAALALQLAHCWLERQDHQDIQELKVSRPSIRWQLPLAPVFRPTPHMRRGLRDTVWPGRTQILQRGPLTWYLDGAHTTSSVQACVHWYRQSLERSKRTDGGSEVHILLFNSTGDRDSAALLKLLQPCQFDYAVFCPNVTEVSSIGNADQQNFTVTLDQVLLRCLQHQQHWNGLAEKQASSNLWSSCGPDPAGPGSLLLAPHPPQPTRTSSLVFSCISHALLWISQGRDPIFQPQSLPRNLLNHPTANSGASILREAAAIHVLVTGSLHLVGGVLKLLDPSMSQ
# What was measured:
# [1] = test system: CCRF-CEM; assay: Compound was tested for its antitumor activity against human lymphoblastic leukemic cells(CCRF-CEM) in vitro; assay type: functional, cell-based; conditions: ccrf-cem
# [2] = Percent inhibition against 6C3HED lymphosarcoma at dose 50 mg/kg in C3H mice; assay type: functional; conditions: Mus musculus
# [3] = Percent inhibition against 6C3HED lymphosarcoma at dose 100 mg/kg in C3H mice; assay type: functional; conditions: Mus musculus
# [4] = Percent inhibition against 6C3HED lymphosarcoma at dose 12.5 mg/kg in C3H mice; assay type: functional; conditions: Mus musculus
# [5] = In vivo antitumor activity (toxic/total) at dose 12.5 mg/kg in C3H mice with transplantable murine solid tumor C3H mammary adenocarcinoma; Compound was tested on 10 mice.; assay type: functional, Mus musculus
# [6] = In vivo antitumor activity (toxic/total) at dose 25 mg/kg in C3H mice with transplantable murine solid tumor C3H mammary adenocarcinoma; Compound was tested on 10 mice.; assay type: functional, Mus musculus
# [7] = In vivo antitumor activity (toxic/total) at dose 50 mg/kg in C3H mice with transplantable murine solid tumor C3H mammary adenocarcinoma; Compound was tested on 10 mice.; assay type: functional, Mus musculus
# [8] = In vivo anti tumor activity (toxic/total) at dose 12.5 mg/kg in C3H mice with transplantable murine solid tumor 6C3HED lymphosarcoma; Compound was tested on 10 mice.; assay type: functional, Mus musculus
# [9] = In vivo anti tumor activity (toxic/total) at dose 25 mg/kg in C3H mice with transplantable murine solid tumor 6C3HED lymphosarcoma; Compound was tested on 10 mice.; assay type: functional, Mus musculus
# [10] = In vivo anti tumor activity (toxic/total) at dose 50 mg/kg in C3H mice with transplantable murine solid tumor 6C3HED lymphosarcoma; Compound was tested on 10 mice.; assay type: functional, Mus musculus
# [11] = Percent inhibition against C3H mammary adenocarcinoma at dose 12.5 mg/kg in C3H mice; assay type: functional; conditions: Mus musculus
# [12] = Percent inhibition against C3H mammary adenocarcinoma at dose 25 mg/kg in C3H mice; assay type: functional; conditions: Mus musculus
# [13] = Percent inhibition against C3H mammary adenocarcinoma at dose 50 mg/kg in C3H mice;Compound was toxic.; assay type: ADME, organism-based; parameters: dose 50 mg/kg; conditions: mouse, in vivo
# [14] = In vivo anti tumor activity (toxic/total) at dose 100 mg/kg in C3H mice with transplantable murine solid tumor 6C3HED lymphosarcoma; Compound was tested on 10 mice.; assay type: functional, Mus musculus
# [15] = Percent inhibition against 6C3HED lymphosarcoma at dose 25 mg/kg in C3H mice; assay type: functional; conditions: Mus musculus
# [16] = molecular target: T1, Folylpolyglutamate synthase, mitochondrial (Mus musculus); assay: Apparent catalytic rate constants (Km) owas determined from mouse liver Folyl-polyglutamate synthase
# [17] = molecular target: T1, Folylpolyglutamate synthase, mitochondrial (Mus musculus); assay: First order catalytic rate constants (k) was determined from mouse liver Folyl-polyglutamate synthase
# [18] = substrate: Nc1nc(N)c2nc(CNc3ccc(C(=O)N[C@@H](CCC(=O)O)C(=O)O)cc3)cnc2n1; assay: (§1) Catalytic rate constants (Vmax) was determined from mouse liver Folyl-polyglutamate synthase
# [19] = substrate: Nc1nc(O)c2c(n1)NCC(CNc1ccc(C(=O)N[C@@H](CCC(=O)O)C(=O)O)cc1)C2; assay: as §1
# [20] = substrate: Nc1nc2c(c(=O)[nH]1)C[C@@H](CCc1ccc(C(=O)N[C@@H](CCC(=O)O)C(=O)O)cc1)CN2; assay: as §1
# [21] = substrate: Nc1nc(=O)c2nc(CNc3ccc(C(=O)N[C@@H](CCC(=O)O)C(=O)O)cc3)cnc2[nH]1; assay: Catalytic rate folyl-poly-glutamate synthetase
molecule,measurement,setting,value
Nc1nc(O)c2c(n1)NCC(CNc1ccc(C(=O)N[C@@H](CCC(=O)O)C(=O)O)cc1)C2 (stereo in doubt; 7a-A),IC50,[1],6 nM
Nc1nc(O)c2c(n1)NCC(CN(C=O)c1ccc(C(=O)N[C@@H](CCC(=O)O)C(=O)O)cc1)C2 (stereo in doubt; 7b),inhibition in vivo at 50 mg/kg,[2],100%
same,inhibition in vivo at 100 mg/kg,[3],100%
same,inhibition in vivo at 12.5 mg/kg,[4],95%
same,tox/total,[5],0
same,tox/total,[6],6
same,tox/total,[7],10
same,IC50,[1],50 nM
same,tox/total,[8],1
same,tox/total,[9],1
same,tox/total,[10],5
same,inhibition in vivo at 12.5 mg/kg,[11],86%
same,inhibition in vivo at 25 mg/kg,[12],98%
same,Inhibition,[13],Toxic
same,tox/total,[14],7
same,inhibition in vivo at 25 mg/kg,[15],100%
Nc1nc2c(c(=O)[nH]1)C[C@@H](CCc1ccc(C(=O)N[C@@H](CCC(=O)O)C(=O)O)cc1)CN2 (stereo in doubt; form 1) [LOMETREXOL],IC50,[1],8 nM
Nc1nc2c(c(=O)[nH]1)C[C@@H](CCc1ccc(C(=O)N[C@@H](CCC(=O)O)C(=O)O)cc1)CN2 (stereo in doubt; form 2) [LOMETREXOL],IC50,[1],5 nM
Nc1nc2c(c(=O)[nH]1)C[C@@H](CCc1ccc(C(=O)N[C@@H](CCC(=O)O)C(=O)O)cc1)CN2 (stereo in doubt; form 3),Km app,[16],7.3 µM
same,k,[17],32
Nc1nc2c(c(=O)[nH]1)C[C@@H](CCc1ccc(C(=O)N[C@@H](CCC(=O)O)C(=O)O)cc1)CN2 (stereo in doubt; form 3) [LOMETREXOL],IC50,[1],20 nM
"Folylpolyglutamate synthase, mitochondrial (Mus musculus), P48760 (protein) MSWARSRLCSTLSLAAVSARGATTEGAARRGMSAWPAPQEPGMEYQDAVRTLNTLQTNASYLEQVKRQRSDPQAQLEAMEMYLARSGLQVEDLNRLNIIHVTGTKGKGSTCAFTERILRNYGLKTGFFSSPHMVQVRERIRINGKPISPELFTKHFWCLYNQLEEFKDDSHVSMPSYFRFLTLMAFHVFLQEKVDLAVVEVGIGGAFDCTNIIRKPVVCGVSSLGIDHTSLLGDTVEKIAWQKGGIFKPGVPAFTVVQPEGPLAVLRDRAQQIGCPLYLCPPLEALEEVGLPLSLGLEGAHQRSNAALALQLAHCWLERQDHQDIQELKVSRPSIRWQLPLAPVFRPTPHMRRGLRDTVWPGRTQILQRGPLTWYLDGAHTTSSVQACVHWYRQSLERSKRTDGGSEVHILLFNSTGDRDSAALLKLLQPCQFDYAVFCPNVTEVSSIGNADQQNFTVTLDQVLLRCLQHQQHWNGLAEKQASSNLWSSCGPDPAGPGSLLLAPHPPQPTRTSSLVFSCISHALLWISQGRDPIFQPQSLPRNLLNHPTANSGASILREAAAIHVLVTGSLHLVGGVLKLLDPSMSQ",Vmax,[18],1.59
same,Vmax,[19],1.3
same,Vmax,[20],1.26
same,Vmax,[21],1
